Results reported in ChEMBL document CHEMBL1201862, “PubChem BioAssay data set” (2004).
The source made the active and inactive calls.

Legend:
[1] = A549 cell cytotoxicity, dose response, cytotoxicity control, plate reader, cherry-pick, antagonist series (AID 743412); assay type: functional, cell-based
[2] = toxicity toward HepG2 liver cells – cell-based, plate reader, cherry-pick, antagonist series, cytotoxicity control, dose response (AID 743416); assay type: functional
[3] = blockers of bursicon-stimulated LGR2 cAMP reporter – cell-based, HEK293, CRE-luciferase reporter, cherry pick, set 2, dose response (AID 743343); assay type: functional;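 also: transfected cells were stimulated with diluted bursicon conditioned medium after compound addition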
[4] = blockade of melanocortin 4 receptor signaling – cell-based, plate reader, cherry pick, counter-screen for LGR2 antagonist project, dose response (AID 743444); assay type: functional;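 also: transfected HEK 293 cells stimulated with alpha-MSH peptide; potency of inhibitors of the alpha-MSH evoked signal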
[5] = viability loss in HEK293 cells – cell-based, plate reader, cherry-picked samples, cytotoxicity control, dose response (AID 743446); assay type: functional
Leucine aminopeptidase = biological target: T1, Leucine aminopeptidase (Plasmodium falciparum 3D7, UniProt Q8IL11); assay: P. falciparum M17LAP inhibitors, primary screen, biochemical, fluorogenic H-Leu-NHMec substrate, 1536-well (AID 1619); assay type: functional
T1 sequence (Q8IL11 whole entry): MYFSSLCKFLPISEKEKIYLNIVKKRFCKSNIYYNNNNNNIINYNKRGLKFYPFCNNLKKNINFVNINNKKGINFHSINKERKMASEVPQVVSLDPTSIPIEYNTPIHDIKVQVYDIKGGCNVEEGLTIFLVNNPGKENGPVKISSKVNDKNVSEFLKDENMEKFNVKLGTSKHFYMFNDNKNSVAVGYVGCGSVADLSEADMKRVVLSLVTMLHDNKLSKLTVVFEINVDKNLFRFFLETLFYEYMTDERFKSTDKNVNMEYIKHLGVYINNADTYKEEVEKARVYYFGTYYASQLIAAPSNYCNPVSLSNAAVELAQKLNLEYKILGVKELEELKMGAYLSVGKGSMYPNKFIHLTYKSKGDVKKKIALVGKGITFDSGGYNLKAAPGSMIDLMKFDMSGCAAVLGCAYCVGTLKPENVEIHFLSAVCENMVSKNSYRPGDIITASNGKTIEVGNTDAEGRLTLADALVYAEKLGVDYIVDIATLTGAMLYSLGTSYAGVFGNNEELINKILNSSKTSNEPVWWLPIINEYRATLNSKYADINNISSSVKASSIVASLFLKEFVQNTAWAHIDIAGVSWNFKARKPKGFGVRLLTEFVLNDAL

[6] = biological target: T2, Heat shock factor protein 1 (Mus musculus, UniProt P38532); assay: enhancement of HSF1-driven luciferase signal – cell-based, NIH3T3, luminescence, dose retest, confirmation (AID 435004); assay type: functional;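 also: stress induced by proteasome inhibitor MG132 added 30 min after compound; luciferase reporter driven by HSF1 response element in NIH3T3 cells; actives raise luminescence as potentiators of the MG132 stress response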
T2 sequence (P38532 whole entry): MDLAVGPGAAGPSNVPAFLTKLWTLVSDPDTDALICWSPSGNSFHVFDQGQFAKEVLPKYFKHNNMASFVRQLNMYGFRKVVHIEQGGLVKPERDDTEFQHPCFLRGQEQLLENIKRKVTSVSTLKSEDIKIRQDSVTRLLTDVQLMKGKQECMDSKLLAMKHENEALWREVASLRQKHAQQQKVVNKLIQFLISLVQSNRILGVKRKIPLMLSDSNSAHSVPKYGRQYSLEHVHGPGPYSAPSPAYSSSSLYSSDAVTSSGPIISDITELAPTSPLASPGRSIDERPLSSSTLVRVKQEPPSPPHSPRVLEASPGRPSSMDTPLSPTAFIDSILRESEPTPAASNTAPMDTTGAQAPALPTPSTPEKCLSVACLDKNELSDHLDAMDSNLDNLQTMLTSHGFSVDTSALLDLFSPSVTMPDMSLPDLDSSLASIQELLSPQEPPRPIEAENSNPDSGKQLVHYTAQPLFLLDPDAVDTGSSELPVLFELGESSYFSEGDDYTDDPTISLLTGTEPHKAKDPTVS

[7] = reduced cellular PGC1a acetyl-lysine signal – cell-based, cherry-picked samples, dose response (AID 720514); assay type: functional;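 also: potency may reflect raised or lowered acetylation signal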
[8] = biological target: T3, Replicative DNA helicase DnaB (Mycobacterium tuberculosis, UniProt P9WMR3); assay: DnaB intein splicing inhibitors, dose response, biochemical, cell-free fluorescence (AID 449749); assay type: functional
T3 sequence (P9WMR3 whole entry): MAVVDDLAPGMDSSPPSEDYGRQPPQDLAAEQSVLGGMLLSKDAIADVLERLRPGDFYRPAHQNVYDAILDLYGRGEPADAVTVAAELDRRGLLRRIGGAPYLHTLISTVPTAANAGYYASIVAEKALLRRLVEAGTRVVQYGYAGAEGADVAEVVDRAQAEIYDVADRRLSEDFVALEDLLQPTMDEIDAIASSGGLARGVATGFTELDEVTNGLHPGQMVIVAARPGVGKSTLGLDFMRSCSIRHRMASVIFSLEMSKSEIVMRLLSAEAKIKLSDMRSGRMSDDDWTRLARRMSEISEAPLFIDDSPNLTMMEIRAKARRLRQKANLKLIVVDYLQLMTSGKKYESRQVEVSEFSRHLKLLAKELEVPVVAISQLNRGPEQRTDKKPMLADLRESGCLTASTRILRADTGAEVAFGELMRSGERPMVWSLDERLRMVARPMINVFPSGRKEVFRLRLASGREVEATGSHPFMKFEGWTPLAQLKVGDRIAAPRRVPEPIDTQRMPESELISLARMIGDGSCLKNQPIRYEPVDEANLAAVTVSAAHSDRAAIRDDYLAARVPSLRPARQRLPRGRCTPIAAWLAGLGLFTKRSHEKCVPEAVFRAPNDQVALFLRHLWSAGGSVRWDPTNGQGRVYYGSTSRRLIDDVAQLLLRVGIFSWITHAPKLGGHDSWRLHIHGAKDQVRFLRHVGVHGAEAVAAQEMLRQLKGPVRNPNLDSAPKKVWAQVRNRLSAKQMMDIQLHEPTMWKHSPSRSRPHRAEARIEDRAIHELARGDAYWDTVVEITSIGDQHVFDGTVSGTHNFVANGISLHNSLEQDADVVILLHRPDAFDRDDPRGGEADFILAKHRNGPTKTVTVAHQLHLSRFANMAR

Protein RecA = biological target: T4, Protein RecA (Mycobacterium tuberculosis, UniProt P9WHJ3); assay: Fluorescence Cell-Free Homogeneous Dose Retest to Identify Inhibitors of RecA-Intein Splicing Activity. [Related pubchem assays (depositor defined):AID2097, AID2223, AID489010, AID492950]; assay type: functional
T4 sequence (P9WHJ3 whole entry): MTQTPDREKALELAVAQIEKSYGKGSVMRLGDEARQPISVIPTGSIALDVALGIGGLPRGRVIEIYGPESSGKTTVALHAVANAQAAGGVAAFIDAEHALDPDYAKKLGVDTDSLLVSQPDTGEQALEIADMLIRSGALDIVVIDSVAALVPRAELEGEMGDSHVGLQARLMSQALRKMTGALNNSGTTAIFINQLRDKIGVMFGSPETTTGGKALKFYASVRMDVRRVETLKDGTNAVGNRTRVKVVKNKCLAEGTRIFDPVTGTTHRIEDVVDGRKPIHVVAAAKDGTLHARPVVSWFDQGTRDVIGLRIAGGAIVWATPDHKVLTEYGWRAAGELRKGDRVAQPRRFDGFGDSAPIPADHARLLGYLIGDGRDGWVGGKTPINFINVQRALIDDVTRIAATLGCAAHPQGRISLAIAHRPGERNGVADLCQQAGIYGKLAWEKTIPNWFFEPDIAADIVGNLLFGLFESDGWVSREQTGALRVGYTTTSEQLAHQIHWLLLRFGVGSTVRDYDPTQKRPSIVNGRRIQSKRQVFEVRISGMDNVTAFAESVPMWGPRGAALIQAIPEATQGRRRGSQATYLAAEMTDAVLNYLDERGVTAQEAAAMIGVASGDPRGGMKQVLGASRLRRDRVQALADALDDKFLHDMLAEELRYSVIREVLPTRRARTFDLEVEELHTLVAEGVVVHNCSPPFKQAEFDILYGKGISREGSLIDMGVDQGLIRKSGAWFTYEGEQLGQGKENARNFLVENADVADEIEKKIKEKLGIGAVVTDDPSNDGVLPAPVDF

[9] = Luminescence Cell-Based Dose Response to Identify Activators of 5'UTR Stem-Loop Driven Prion Protein mRNA Translation in H4-C Neuroglioblastoma Cells. [Related pubchem assays: 1829 (Project Summary), 1814 (Primary HTS)]; assay type: functional
[10] = Luminescence Cell-Based Dose Response HTS to Identify Activators of Luciferase Translation or Activity in H4 […] Cells. [Related pubchem assays: 1829 (Project Summary), 1814 (Primary HTS)]; assay type: functional
[11] = Luminescence Cell-Based Dose Response to Identify Activators of Luciferase Translation or Activity in H4-C Neuroglioblastoma Cells. [Related pubchem assays: 1829 (Project Summary), 1814 (Primary HTS)]; assay type: functional
[12] = Luminescence Cell-Based Dose Confirmation to Identify Activators of 5'UTR Stem-Loop Driven Alpha-Synuclein mRNA Translation in H4 Neuroglioblastoma Cells. [Related pubchem assays: 1829 (Project Summary), 1814 (Primary HTS)]; assay type: functional
H4 = assay: Luminescence Cell-Based Dose Response HTS to Identify Activators of 5'UTR Stem-Loop Driven Prion Protein mRNA Translation in H4 Neuroglioblastoma Cells. [Related pubchem assays: 1829 (Project Summary), 1814 (Primary HTS)]; assay type: functional; details: Homo sapiens
[13] = rise of 2N DNA cells, HeLa – IC50, dose response (AID 1117349); assay type: functional, cell-based
[14] = rise of 4N DNA cells, HeLa – IC50, dose response (AID 1117351); assay type: functional, cell-based
[15] = Luminescence Cell-Based Dose Confirmation HTS to Identify Activators of 5'UTR Stem-Loop Driven Alpha-Synuclein mRNA Translation in H4 Neuroglioblastoma Cells. [Related pubchem assays: 1829 (Project Summary), 1814 (Primary HTS)]; assay type: functional
[16] = NIH-3T3 fibroblast cytotoxicity, dose response, cytotoxicity control, cell-based, fluorescence, Alamar Blue, secondary assay (AID 2327); assay type: functional;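 also: NIH-3T3 mouse fibroblasts cultured with fluconazole at 8 µg/mL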
[17] = fluconazole-exposed Candida albicans growth modulators – fluorescence, retest, confirmation (AID 2467); assay type: functional, cell-based
[18] = Trypanosoma cruzi growth suppression in host cells – NIH3T3 host cells, beta-gal luminescence, confirmation (AID 2044); assay type: functional, cell-based;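 also: intracellular parasites grown in NIH/3T3 mouse fibroblasts as host cells; luminescent beta-galactosidase reporter signal from transgenic T. cruzi replicating inside host cells; inhibitors lower the luminescence signal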
[19] = NIH3T3 cell viability loss – ATP luminescence, mouse fibroblasts, counter-screen, dose response (AID 2010); assay type: functional, cell-based;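 also: cells exposed to compound for about 90 hours before reading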
[20] = THP-1 cell cytotoxicity, dose response, cytotoxicity control for non-replicating M. tuberculosis project (AID 489025); assay type: functional
cells = assay type: functional

COc1ccc(-c2cc3nc(NCc4ccc(N(C)C)cc4)n(C)c(=O)c3s2)cc1OC
AC50 [1]: 36 µM (active) | AC50 [2]: 45.2 µM (active) | AC50 [3]: 31.3 µM (active) | AC50 [4]: 39 µM (active) | AC50 [5]: 3.28 µM (active)

Cc1cccc(NC(=O)CSc2nc3n[nH]cc3c(=O)[nH]2)c1
IC50 (Leucine aminopeptidase): 3.88 µM (active)

Cc1cc2c(c(/C=C/C(=O)c3ccccc3)c1)OC1(C=C2)Oc2ccccc2C(=O)N1C (stereo unspecified)
EC50 [6]: 3.56 µM (active) | AC50 [7]: 2.26 µM (active)

CC(C)CC1C(C#N)=C(N)Oc2[nH]nc(-c3ccccc3)c21 (stereo unspecified)
IC50 (Leucine aminopeptidase): 33.7 µM (active) | AC50 [8]: 5.91 µM (active) | EC50 (Protein RecA): 2.13 µM (active)

O=C1C2C3CCC(C3)C2C(=O)N1c1ccc(OS(=O)(=O)c2ccccc2)cc1 (stereo unspecified)
EC50 [9]: 408 nM (active) | EC50 [10]: < 100 nM (inconclusive) | EC50 [11]: 360 nM (active) | EC50 [12]: 366 nM (active)

C[C@@H]1CN([C@@H](C)CO)S(=O)(=O)c2ccc(-c3ccc(C#N)cc3)cc2O[C@H]1CN(C)C(=O)CN(C)C
AC50 [7]: 26.5 µM (active)

Cn1nnc2cc(NC(=O)Nc3cccc(Cl)c3)ccc21
EC50 [9]: 832 nM (active) | EC50 [10]: 176 nM (active) | EC50 (H4): 109 nM (active) | EC50 [11]: 553 nM (active) | EC50 [12]: 413 nM (active)

O=C(Cc1ccccn1)NCC[C@H]1CC[C@@H](NC(=O)Nc2ccc(C(F)(F)F)cc2)[C@@H](CO)O1
AC50 [7]: 34.6 µM (active)

[O-][n+]1ccccc1SSc1cccc[n+]1[O-] [DIPYRITHIONE]
IC50 [13]: > 10 µM (inactive) | IC50 [14]: > 10 µM (inactive)

COCCn1c(C)cc(C(=O)CSc2nc(O)c3ccccc3n2)c1C
EC50 [9]: 269 nM (active) | EC50 [10]: < 100 nM (active) | EC50 [11]: 326 nM (active) | EC50 [12]: 371 nM (active)

c1ccc2nc3c(nc2c1)OCC1CCCCN31 (stereo unspecified)
EC50 [9]: 1450 nM (active) | EC50 [15]: 475 nM (active) | EC50 [10]: 193 nM (active) | EC50 (H4): 161 nM (active) | EC50 [11]: 490 nM (active) | EC50 [12]: > 12000 nM (not active)

Cc1noc2ncnc(Sc3ccc(Br)cc3)c12
EC50 [16]: 7.6 µM (inconclusive) | EC50 [17]: > 38 µM (not active) | EC50 [18]: 1.96 µM (active) | EC50 [19]: > 60 µM (inconclusive) | CC50 [20]: > 40 µM (active) | EC50 [6]: 6.64 µM (active) | IC50 (cells): 11.6 µM (active) | AC50 [8]: 4.02 µM (active) | EC50 (Protein RecA): 16.2 µM (active) | AC50 [2]: 25.4 µM (active) | AC50 [5]: > 52 µM (inactive)

COc1ccccc1NC(=O)CSc1nc(O)cc(=O)[nH]1
IC50 (Leucine aminopeptidase): 74.7 µM (active)
